Results reported in US12590099B2, “Inhibitors of histone deacetylase useful for the treatment or prevention of HIV infection” (Merck Sharp & Dohme LLC, priority 2018, dated 2026).

Key:
Type in all cases: biochemical
Recombinant human HDAC1 = molecular target: T1, Recombinant human HDAC1 (Homo sapiens, UniProt Q13547); assay: Human HDAC enzyme inhibitor Fluor-de-Lys assay, HDAC1
T1 construct: FLAG (C); made in house
How it was run: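 Fluor-de-Lys format at room temperature (23° C.): compounds titrated 10-point, 1:3, preincubated with HDAC before substrate addition; HDAC1 run at 0.3 nM enzyme with 20 μM BML-KI104. Developer with excess HDAC inhibitor ends the reaction, and trypsin-liberated AMC fluorescence is the read-out.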

HDAC6 = molecular target: T2, HDAC6 (Homo sapiens, UniProt Q9UBN7); assay: Human HDAC enzyme inhibitor Fluor-de-Lys assay, HDAC6
T2 sequence (Q9UBN7 1-1215): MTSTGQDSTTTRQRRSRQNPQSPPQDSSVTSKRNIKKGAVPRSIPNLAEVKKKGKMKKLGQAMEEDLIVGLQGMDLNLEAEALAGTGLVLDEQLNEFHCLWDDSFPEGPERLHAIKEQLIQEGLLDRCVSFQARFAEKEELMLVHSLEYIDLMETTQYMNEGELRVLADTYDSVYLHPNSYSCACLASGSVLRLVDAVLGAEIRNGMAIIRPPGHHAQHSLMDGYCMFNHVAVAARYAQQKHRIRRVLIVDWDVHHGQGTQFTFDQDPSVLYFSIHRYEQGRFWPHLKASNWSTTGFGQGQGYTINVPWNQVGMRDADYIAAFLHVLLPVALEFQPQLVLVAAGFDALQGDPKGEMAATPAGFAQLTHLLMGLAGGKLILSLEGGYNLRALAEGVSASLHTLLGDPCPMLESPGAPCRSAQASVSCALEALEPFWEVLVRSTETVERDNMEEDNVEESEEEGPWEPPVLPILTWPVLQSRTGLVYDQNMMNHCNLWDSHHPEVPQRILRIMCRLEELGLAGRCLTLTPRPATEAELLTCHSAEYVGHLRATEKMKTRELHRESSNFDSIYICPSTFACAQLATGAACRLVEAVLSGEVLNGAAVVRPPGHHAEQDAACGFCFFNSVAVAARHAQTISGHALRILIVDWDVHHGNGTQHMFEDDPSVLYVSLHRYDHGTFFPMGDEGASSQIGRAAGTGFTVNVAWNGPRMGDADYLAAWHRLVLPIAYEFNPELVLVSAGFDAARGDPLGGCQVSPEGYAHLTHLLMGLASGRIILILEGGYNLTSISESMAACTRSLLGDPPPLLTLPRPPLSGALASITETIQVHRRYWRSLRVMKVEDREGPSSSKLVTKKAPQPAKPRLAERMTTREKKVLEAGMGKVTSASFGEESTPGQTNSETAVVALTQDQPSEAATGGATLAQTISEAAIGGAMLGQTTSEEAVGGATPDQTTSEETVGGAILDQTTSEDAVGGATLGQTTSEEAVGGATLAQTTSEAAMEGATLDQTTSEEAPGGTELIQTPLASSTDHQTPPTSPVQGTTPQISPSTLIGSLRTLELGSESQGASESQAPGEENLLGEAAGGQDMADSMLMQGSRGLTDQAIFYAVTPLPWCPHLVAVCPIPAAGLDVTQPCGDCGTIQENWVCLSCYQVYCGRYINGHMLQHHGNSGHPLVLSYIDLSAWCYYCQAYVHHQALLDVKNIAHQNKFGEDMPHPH

[1] = molecular target: T3, Recombinant human HDAC3/SMRT heterodimer (Homo sapiens, UniProt O15379); assay: Human HDAC enzyme inhibitor Fluor-de-Lys assay, HDAC3/SMRT
T3 construct: FLAG (C); made in house
T3 sequence (O15379 whole entry): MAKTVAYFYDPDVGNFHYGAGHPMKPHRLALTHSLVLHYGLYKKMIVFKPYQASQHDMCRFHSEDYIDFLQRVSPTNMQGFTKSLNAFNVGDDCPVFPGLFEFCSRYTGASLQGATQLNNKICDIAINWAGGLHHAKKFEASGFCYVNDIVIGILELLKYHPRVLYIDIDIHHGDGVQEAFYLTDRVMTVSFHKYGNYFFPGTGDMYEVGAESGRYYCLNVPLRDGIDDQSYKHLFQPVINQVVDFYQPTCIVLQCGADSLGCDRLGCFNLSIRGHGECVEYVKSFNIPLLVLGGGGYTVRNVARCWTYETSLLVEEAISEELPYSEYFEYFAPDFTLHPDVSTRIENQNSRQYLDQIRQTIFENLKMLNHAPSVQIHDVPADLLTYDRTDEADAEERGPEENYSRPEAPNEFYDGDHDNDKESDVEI
T3 sequence (Q9Y618 1-899 partner limits assumed): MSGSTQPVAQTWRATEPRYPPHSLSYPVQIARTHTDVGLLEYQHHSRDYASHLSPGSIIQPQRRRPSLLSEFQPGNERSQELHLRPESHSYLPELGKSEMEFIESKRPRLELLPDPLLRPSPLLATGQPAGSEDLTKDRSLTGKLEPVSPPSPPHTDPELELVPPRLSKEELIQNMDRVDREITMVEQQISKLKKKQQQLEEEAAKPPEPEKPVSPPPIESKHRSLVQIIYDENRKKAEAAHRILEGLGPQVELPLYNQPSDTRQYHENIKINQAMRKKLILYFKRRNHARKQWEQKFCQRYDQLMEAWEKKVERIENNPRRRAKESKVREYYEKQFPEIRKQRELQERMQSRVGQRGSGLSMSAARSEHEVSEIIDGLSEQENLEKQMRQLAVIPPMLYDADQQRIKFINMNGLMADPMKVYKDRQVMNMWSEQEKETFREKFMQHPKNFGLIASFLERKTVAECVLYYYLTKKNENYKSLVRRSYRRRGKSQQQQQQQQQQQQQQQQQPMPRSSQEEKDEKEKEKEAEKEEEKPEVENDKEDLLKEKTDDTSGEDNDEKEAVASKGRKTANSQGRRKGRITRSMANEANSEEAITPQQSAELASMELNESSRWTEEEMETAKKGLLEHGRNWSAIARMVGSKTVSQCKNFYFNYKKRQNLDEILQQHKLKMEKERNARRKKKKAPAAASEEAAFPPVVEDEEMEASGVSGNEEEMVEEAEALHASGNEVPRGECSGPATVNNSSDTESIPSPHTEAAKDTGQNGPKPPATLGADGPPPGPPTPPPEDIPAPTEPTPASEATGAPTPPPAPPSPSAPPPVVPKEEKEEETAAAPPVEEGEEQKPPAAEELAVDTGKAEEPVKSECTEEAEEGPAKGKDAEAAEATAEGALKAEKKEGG

T1 sequence (Q13547 whole entry): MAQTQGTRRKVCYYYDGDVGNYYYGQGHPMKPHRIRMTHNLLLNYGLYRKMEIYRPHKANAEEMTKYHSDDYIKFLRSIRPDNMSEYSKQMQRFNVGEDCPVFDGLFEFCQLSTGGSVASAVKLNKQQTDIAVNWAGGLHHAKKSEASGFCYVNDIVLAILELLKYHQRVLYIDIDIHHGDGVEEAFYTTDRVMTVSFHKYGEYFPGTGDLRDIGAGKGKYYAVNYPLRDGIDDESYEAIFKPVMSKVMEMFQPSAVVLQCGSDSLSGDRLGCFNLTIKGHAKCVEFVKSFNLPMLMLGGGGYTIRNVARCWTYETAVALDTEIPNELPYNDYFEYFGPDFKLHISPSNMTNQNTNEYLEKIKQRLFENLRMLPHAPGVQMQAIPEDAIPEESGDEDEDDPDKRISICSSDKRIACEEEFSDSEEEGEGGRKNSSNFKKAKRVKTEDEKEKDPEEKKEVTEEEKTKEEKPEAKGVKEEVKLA

Compound | IC50 (Recombinant human HDAC1) [µM] | IC50 (HDAC6) [µM] | IC50 [1] [µM]
COc1cc2nc(C)ccc2cc1-c1cnc([C@H](CCCCCC(=O)CC2CCC2)NC(=O)[C@H]2CC23CCN(C)CC3)o1 [Compound 185] | 0.0151 | 36.4 | 0.026
C=CCN1CCC2(CC1)C[C@@H]2C(=O)N[C@@H](CCCCCC(=O)CC)c1ncc(-c2ccc3c(c2)C2CCC3N2CC=C)[nH]1 (stereo partly drawn) [Compound 179, (1S)—N-{(1S)-7-oxo-1-[5-(9-prop-2-en-1-yl-1,2,3,4-tetrahydro-1,4-epiminonaphthalen-6-yl)-1H-imidazol-2-yl]nonyl}-6-prop-2-en-1-yl-6-azaspiro[2.5]octane-1-carboxamide] | 0.0583 | 9.53 | 0.0175
CCC(=O)CCCCC[C@H](NC(=O)[C@H]1CC12CCN(C)CC2)c1ncc(-c2ccc3cnc(OC)cc3c2)[nH]1 [Compound 113] | 0.00137 | > 4.5 | 0.00142
CCC(=O)CCCCC[C@H](NC(=O)C1=NOC2(CCN(C)CC2)C1)c1ncc(-c2ccc3nc(C4CC4)ccc3c2)o1 [Compound 135] | 0.0146 | > 15 | 0.011
CCC(=O)CCCCC[C@H](NC(=O)[C@H]1CC12CCN(C)CC2)c1ncc(-c2ccc3nc(CC)sc3c2)[nH]1 [Compound 149] | 0.0005 | 3.66 | 0.00062
CCC(=O)CCCCC[C@H](NC(=O)[C@H]1CC12CCN(C)CC2)c1ncc(-c2ccc3ncc(Cl)cc3c2)[nH]1 [Compound 140] | 0.00097 | 0.611 | 0.00095
CCC(=O)CCCCC[C@H](NC(=O)C1=NOC2(CCN(C(C)C)CC2)C1)c1ncc(-c2ccc3nc(C4CC4)ccc3c2)o1 [Compound 136] | 0.0103 | > 4.5 | 0.00641
CCN1CCC2(CC1)C[C@@H]2C(=O)N[C@@H](CCCCCC(=O)CC1CC1)c1ncc(-c2cc3ccc(C)nc3cc2OC)[nH]1 [Compound 165] | 0.00118 | 11.9 | 0.00214
CCC(=O)CCCCC[C@H](NC(=O)[C@H]1CC12CCN(CC)CC2)c1ncc(-c2ccc(-c3cnc(C4CC4)cn3)cc2)o1 [Compound 129, (1S)—N-[(1S)-1-{5-[4-(5-cyclopropylpyrazin-2-yl)phenyl]-1,3-oxazol-2-yl}-7-oxononyl]-6-ethyl-6-azaspiro[2.5]octane-1-carboxamide] | 0.027 | > 15 | 0.0142
CCC(=O)CCCCC[C@H](NC(=O)[C@H]1CC12CCN(C)CC2)c1nc(F)c(-c2cc3ccccc3nc2OC)[nH]1 [Compound 75] | 0.0293 | > 45 | 0.00259
CCC(=O)CCCCC[C@H](NC(=O)C1=NOC2(CCN(C)CC2)C1)c1ncc(-c2ccc3nn(C)cc3c2)[nH]1 [Compound 154] | 0.00603 | 18.1 | 0.00276
CCC(=O)CCCCC[C@H](NC(=O)[C@H]1CC12CCN(CC)CC2)c1ncc(-c2ccc3nc(C4CC4)ccc3c2)[nH]1 [Compound 101] | < 0.0015 | 7.37 | < 0.0015
CCC(=O)CCCCC[C@H](NC(=O)C1=NOC2(CCN(CC)CC2)C1)c1ncc(-c2cc3ccc(C)nc3cc2OC)o1 [Compound 204] | 0.00034 | 0.592 | 0.0007
CCC(=O)CCCCC[C@H](NC(=O)C1CC2(C1)CN(C)C2)c1ncc(-c2ccc3nn(C)cc3c2)[nH]1 [Compound 147] | 0.00229 | 3.66 | < 0.0015
CCC(=O)CCCCC[C@H](NC(=O)C1=NOC2(CCN(C(C)C)CC2)C1)c1ncc(-c2cc3ccccc3nc2OC)[nH]1 [Compound 106, N-{(1S)-1-[5-(2-methoxyquinolin-3-yl)-1H-imidazol-2-yl]-7-oxononyl}-8-(1-methylethyl)-1-oxa-2,8-diazaspiro[4.5]dec-2-ene-3-carboxamide] | 0.00173 | 1.46 | < 0.0015
CCC(=O)CCCCC[C@H](NC(=O)C1CN(C)C1)c1ncc(-c2ccc3c(c2)C2CCC3C2)[nH]1 (stereo partly drawn) [Compound 73, 1-methyl-N-{(1S)-7-oxo-1-[5-(1,2,3,4-tetrahydro-1,4-methanonaphthalen-6-yl)-1H-imidazol-2-yl]nonyl}azetidine-3-carboxamide] | 0.031 | 6.51 | 0.00957
CCC(=O)CCCCC[C@H](NC(=O)[C@H]1CC12CCN(CC1CC1)CC2)c1ncc(-c2ccc3nc(C4CC4)ccc3c2)o1 [Compound 115] | < 0.0015 | 4.29 | < 0.0015
CC(O)C(=O)CCCCC[C@H](NC(=O)[C@H]1CC12CCN(C)CC2)c1nc(-c2ccc(F)cc2)c[nH]1 (stereo partly drawn) [Compound 134, (1S)—N-{(1S)-1-[4-(4-fluorophenyl)-1H-imidazol-2-yl]-8-hydroxy-7-oxononyl}-6-methyl-6-azaspiro[2.5]octane-1-carboxamide] | 0.0105 | 1.76 | 0.004
CCC(=O)CCCCC[C@H](NC(=O)CN1CCC2(CC1)CC2)c1ncc(-c2ccc3nn(C)cc3c2)[nH]1 [Compound 155] | 0.00691 | 8.94 | 0.00205
CCC(=O)CCCCC[C@H](NC(=O)C1=NOC2(CCN(C)CC2)C1)c1ncc(-c2cc3ccc(C)nc3cc2F)o1 [Compound 221] | 0.00862 | > 0.9 | 0.0136
CCC(=O)CCCCC[C@H](N)c1ncc(-c2ccc3nc(C)ccc3c2)[nH]1 [Compound 178] | 0.107 | > 45 | 0.0549
C=CCN1CCC2(CC1)C[C@@H]2C(=O)N[C@@H](CCCCCC(=O)CC)c1ncc(-c2cccc3c2C2CCC3N2CC=C)[nH]1 (stereo partly drawn) [Compound 180, (1S)—N-{(1S)-7-oxo-1-[5-(9-prop-2-en-1-yl-1,2,3,4-tetrahydro-1,4-epiminonaphthalen-5-yl)-1H-imidazol-2-yl]nonyl}-6-prop-2-en-1-yl-6-azaspiro[2.5]octane-1-carboxamide] | 0.0054 | 2.12 | 0.00255
CCC(=O)CCCCC[C@H](NC(=O)[C@H]1CC12CCN(C)CC2)c1ncc(-c2ccc3nc(C4CC4)sc3c2)[nH]1 [Compound 146] | 0.00106 | 7.73 | 0.00064
CCC(=O)CCCCC[C@H](NC(=O)C1=NOC2(CCN(CC3CC3)CC2)C1)c1ncc(-c2cc3ccc(C)nc3cc2OC)[nH]1 [Compound 219] | 0.0001 | > 0.9 | 0.00034
CCC(=O)CCCCC[C@H](NC(=O)C1CCC2(CC1)CN(C)C2)c1ncc(-c2ccc3nn(C)cc3c2)[nH]1 [Compound 156] | 0.00503 | 7.53 | 0.00198
CCC(=O)CCCCC[C@H](NC(=O)[C@H]1CC12CCN(CC)CC2)c1ncc(-c2cc3nn(C)cc3cc2OC)o1 [Compound 189] | 0.00733 | 0.159 | 0.00234
CCC(=O)CCCCC[C@H](NC(=O)C1=NOC2(CCN(C)CC2)C1)c1ncc(-c2cc3ccncc3nc2OC)o1 [Compound 216] | 0.00711 | 0.786 | 0.0135
CCC(=O)CCCCC[C@H](NC(=O)[C@H]1CC12CCN(CC)CC2)c1ncc(-c2ccc3c(=O)n(C4CC4)ccc3c2)o1 [Compound 153] | 0.00544 | 10.4 | 0.00614
